Laboratory results: ChEMBL document CHEMBL1201862, “PubChem BioAssay data set” (2004)
Active and inactive are the calls of the source.

Experiments:
[1] = viability loss in THP-1 monocytes – THP-1 cells, cytotoxicity control for Vif-APOBEC3G degradation inhibitor project, dose response (AID 1117359); type: functional; conditions: THP-1
[2] = biological target: T1, DNA repair protein RAD52 homolog (Homo sapiens, UniProt P43351); type: functional, biochemical
T1 sequence (P43351 whole entry): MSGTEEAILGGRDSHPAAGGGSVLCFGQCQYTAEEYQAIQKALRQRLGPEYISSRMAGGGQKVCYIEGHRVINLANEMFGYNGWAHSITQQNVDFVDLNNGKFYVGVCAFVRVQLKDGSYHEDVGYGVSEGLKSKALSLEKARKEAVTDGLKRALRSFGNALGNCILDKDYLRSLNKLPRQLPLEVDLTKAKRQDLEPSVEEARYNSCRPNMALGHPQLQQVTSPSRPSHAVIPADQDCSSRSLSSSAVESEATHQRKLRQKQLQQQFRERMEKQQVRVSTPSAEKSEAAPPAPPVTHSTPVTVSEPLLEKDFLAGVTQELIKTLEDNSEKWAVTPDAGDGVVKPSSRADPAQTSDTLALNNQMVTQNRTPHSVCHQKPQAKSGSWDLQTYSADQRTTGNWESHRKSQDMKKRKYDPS

[3] = viability loss in MITF-independent A375 cells – cell-based, CellTiter-Glo luminescence, dry powder, set 2, counter-screen for MITF inhibitor project, dose response (AID 624489); type: functional; conditions: A-375;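 further: actives are compounds lowering A375 viability meaning general cytotoxicity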
[4] = cytotoxicity in MITF-independent A375 cells – cell-based, CellTiter-Glo luminescence, dry powder, set 4, counter-screen for MITF inhibitor project, dose response (AID 624364); type: functional; conditions: A-375;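 further: A375 melanoma cells are MITF independent so this is a counter screen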
[5] = biological target: fMet-Leu-Phe receptor (Homo sapiens, UniProt P21462); test: formyl peptide receptor binders – dose response (AID 519); type: functional
fMet-Leu-Phe receptor, sequence (P21462 whole entry): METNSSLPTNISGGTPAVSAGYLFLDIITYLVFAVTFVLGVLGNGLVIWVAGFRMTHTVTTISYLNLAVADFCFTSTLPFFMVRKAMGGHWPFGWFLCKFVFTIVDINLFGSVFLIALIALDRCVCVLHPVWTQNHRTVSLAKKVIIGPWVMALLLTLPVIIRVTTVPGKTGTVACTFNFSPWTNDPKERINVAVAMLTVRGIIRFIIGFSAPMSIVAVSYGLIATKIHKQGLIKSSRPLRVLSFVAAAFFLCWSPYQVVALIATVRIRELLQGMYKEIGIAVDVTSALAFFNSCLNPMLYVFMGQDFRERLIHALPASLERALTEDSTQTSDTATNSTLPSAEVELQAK

[6] = biological target: T2, Tyrosine-protein phosphatase non-receptor type 7 (Homo sapiens, UniProt P35236); test: HePTP tyrosine phosphatase activity blockers – biochemical, absorbance, leukemia target, primary screen (AID 521); type: functional
T2 sequence (P35236 whole entry): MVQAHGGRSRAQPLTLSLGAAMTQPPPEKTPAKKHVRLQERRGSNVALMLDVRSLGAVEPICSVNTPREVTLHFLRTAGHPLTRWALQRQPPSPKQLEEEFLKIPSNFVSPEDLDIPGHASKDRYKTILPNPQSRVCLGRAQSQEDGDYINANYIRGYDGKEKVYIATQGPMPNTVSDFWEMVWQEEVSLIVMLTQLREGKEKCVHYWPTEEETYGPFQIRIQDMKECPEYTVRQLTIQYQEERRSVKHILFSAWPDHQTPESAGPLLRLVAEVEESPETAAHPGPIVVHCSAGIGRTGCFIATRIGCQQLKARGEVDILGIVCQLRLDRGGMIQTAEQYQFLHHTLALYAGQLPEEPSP

[7] = OVCAR8 cell viability loss – plate reader, dry powder samples, PAX8 project, dose response (AID 743197); type: functional, cell-based; conditions: OVCAR-8
[8] = OVCAR-3 cell viability loss – plate reader, dry powder samples, PAX8 inhibitor project, dose response (AID 743044); type: functional, cell-based
[9] = IGROV1 cell killing – plate reader, dry powder samples, PAX8 inhibitor project, dose response (AID 743043); type: functional, cell-based; conditions: IGROV-1
[10] = biological target: Paired box protein Pax-8 (Homo sapiens, UniProt Q06710); test: PAX8 transcriptional activity inhibition in RMG-I – RMG-I cells, luciferase, cherry-pick, dose response (AID 687027); type: functional, cell-based;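 further: luciferase reporter driven by Pax8 target thyroperoxidase promoter measured by SteadyGlo luminescence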
Paired box protein Pax-8, sequence (Q06710 whole entry, the tested form may be a part): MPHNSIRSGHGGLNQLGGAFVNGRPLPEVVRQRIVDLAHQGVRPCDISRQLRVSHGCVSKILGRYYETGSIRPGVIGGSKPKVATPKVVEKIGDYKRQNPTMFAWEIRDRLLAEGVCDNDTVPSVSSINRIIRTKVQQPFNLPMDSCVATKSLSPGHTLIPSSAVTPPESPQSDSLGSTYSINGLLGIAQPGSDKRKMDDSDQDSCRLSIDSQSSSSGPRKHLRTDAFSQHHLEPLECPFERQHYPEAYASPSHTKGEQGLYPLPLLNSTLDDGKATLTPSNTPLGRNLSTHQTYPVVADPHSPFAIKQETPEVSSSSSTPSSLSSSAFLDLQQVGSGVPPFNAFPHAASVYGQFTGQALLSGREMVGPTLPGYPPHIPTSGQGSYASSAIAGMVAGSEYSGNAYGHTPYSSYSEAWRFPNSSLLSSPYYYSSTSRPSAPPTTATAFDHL

[11] = CCR5-tropic HIV-1 fusion blockers – cell-based, CCR5-tropic Env, dose response (AID 2279); type: functional
[12] = biological target: Peroxisome proliferator-activated receptor gamma/Nuclear receptor coactivator 1 (Homo sapiens, UniProt P37231); type: functional;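 further: agonist potency as compounds enhance coactivator SRC-1 recruitment to PPARgamma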
[13] = biological target: Peroxisome proliferator-activated receptor gamma/Nuclear receptor coactivator 3 (Homo sapiens, UniProt P37231); type: functional;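 further: agonist potency for raising coactivator recruitment to the receptor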
Peroxisome proliferator-activated receptor gamma/Nuclear receptor coactivator 3, sequence (P37231 whole entry): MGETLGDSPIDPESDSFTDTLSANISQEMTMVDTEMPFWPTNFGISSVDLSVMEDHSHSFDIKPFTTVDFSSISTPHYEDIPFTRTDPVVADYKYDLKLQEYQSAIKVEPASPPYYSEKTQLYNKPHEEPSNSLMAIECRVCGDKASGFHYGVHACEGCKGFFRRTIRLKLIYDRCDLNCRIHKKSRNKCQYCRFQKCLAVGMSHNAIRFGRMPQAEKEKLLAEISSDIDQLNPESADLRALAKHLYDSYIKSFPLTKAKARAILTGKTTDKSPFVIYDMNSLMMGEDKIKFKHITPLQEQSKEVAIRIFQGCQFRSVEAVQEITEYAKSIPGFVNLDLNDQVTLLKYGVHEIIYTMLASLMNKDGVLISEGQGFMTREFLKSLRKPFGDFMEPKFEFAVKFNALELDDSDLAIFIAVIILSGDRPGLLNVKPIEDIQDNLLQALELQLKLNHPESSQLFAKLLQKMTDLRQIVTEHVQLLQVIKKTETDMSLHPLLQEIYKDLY
Peroxisome proliferator-activated receptor gamma/Nuclear receptor coactivator 3, sequence (Q9Y6Q9 whole entry, further chain): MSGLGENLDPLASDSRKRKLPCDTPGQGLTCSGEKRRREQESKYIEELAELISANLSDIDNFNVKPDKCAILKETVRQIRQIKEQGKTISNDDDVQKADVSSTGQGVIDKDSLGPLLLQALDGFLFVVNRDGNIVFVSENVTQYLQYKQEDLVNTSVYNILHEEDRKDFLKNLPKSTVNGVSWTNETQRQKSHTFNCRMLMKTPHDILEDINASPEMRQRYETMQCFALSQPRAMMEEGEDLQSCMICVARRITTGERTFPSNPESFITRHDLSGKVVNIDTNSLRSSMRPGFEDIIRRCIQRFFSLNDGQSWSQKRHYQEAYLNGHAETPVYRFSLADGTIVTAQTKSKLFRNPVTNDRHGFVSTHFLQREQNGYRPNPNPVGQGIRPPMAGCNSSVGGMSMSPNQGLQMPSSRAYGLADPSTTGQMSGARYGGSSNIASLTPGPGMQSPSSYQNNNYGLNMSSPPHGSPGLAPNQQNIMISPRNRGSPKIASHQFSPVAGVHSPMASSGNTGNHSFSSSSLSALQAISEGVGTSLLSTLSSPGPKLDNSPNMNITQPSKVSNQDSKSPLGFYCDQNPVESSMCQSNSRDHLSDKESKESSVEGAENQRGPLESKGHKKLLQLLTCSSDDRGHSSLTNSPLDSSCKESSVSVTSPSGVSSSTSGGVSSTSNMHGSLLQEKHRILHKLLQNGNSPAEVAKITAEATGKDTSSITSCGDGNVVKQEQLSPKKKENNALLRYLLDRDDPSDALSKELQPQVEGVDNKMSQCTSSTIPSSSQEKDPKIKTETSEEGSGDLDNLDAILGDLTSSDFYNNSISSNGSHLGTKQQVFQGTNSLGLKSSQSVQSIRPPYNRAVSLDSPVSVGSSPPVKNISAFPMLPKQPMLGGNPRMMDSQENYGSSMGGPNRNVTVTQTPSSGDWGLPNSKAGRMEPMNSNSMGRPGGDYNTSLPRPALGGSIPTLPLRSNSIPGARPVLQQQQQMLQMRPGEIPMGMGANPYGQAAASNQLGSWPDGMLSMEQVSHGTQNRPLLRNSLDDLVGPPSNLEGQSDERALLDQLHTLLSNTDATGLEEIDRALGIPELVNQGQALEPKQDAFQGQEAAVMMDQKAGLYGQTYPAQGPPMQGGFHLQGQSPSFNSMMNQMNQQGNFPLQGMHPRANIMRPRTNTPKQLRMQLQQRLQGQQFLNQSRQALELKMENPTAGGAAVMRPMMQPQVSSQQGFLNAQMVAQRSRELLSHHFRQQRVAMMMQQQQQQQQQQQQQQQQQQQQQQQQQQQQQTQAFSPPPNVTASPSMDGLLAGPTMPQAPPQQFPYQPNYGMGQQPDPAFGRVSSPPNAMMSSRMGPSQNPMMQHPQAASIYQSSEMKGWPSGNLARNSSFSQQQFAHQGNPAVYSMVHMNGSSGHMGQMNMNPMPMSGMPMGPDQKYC

[14] = biological target: Peroxisome proliferator-activated receptor gamma/Nuclear receptor coactivator 2 (Homo sapiens, UniProt P37231); type: functional;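 further: agonist potency for raising coactivator recruitment to the receptor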
Peroxisome proliferator-activated receptor gamma/Nuclear receptor coactivator 2, sequence (P37231 whole entry): as the sequence (P37231 whole entry) above
Peroxisome proliferator-activated receptor gamma/Nuclear receptor coactivator 2, sequence (Q15596 whole entry, further chain): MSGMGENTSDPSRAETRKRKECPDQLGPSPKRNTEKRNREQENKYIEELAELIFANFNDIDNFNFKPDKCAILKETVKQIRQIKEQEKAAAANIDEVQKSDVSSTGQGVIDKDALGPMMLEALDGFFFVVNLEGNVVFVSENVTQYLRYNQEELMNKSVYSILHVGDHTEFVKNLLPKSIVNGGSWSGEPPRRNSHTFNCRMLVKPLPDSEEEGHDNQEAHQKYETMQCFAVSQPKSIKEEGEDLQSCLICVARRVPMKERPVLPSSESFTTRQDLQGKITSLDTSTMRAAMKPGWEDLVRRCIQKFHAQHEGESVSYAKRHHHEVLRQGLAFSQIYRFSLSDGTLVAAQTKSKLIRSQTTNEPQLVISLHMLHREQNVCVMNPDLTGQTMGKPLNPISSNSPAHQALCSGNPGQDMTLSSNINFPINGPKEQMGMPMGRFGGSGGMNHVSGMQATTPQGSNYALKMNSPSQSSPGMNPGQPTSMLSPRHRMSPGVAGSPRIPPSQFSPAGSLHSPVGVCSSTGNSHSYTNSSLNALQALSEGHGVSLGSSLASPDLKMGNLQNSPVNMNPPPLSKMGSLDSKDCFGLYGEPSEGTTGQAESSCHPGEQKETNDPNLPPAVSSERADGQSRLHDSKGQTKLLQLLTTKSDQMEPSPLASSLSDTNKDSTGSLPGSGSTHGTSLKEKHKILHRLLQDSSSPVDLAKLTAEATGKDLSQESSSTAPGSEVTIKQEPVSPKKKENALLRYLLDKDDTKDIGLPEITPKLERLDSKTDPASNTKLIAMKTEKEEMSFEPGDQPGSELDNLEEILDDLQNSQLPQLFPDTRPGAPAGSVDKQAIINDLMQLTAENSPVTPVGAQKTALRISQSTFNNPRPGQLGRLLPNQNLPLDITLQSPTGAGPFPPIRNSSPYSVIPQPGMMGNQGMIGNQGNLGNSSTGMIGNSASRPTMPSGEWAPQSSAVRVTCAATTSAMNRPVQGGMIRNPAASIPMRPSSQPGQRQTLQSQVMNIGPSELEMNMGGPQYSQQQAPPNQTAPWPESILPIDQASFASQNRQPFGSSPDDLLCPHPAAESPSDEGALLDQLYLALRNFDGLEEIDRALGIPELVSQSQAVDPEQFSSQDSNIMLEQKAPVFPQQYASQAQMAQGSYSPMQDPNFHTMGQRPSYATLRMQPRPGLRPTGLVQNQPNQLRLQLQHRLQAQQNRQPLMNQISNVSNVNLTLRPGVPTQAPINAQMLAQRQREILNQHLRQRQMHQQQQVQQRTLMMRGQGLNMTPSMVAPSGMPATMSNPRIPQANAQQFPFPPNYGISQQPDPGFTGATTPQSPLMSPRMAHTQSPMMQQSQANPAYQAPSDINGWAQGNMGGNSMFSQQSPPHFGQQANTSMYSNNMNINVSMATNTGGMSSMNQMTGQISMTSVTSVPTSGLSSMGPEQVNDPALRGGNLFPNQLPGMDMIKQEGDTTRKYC

[15] = biological target: T3, Long-chain-fatty-acid--AMP ligase FadD28 (Mycobacterium tuberculosis, UniProt P9WQ59); test: Fluorescence polarization aasay to screen for inhibitors that compete for the binding of FadD28 to a bisubstrate Measured in Biochemical System Using Plate Reader - 2147-01_Inhibitor_Dose_CherryPick_Activity.; type: functional, Mycobacterium tuberculosis H37Rv
T3 sequence (P9WQ59 whole entry): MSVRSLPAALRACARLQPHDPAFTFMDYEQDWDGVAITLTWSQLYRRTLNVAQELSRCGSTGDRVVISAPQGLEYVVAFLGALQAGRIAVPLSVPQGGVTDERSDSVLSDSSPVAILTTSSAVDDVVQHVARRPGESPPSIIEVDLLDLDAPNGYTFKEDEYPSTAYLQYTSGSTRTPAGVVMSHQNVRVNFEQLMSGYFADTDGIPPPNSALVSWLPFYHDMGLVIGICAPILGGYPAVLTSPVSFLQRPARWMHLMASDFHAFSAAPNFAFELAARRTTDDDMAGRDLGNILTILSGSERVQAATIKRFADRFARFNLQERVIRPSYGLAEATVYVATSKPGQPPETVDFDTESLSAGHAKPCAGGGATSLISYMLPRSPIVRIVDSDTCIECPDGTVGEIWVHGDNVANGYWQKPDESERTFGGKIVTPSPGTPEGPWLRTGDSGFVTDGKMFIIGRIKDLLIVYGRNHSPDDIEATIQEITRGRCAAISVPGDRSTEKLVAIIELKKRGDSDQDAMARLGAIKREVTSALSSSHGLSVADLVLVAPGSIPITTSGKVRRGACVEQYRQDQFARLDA

[16] = biological target: Genome polyprotein (dengue virus type 2, UniProt P29990); test: flavivirus cap methylation enzyme inhibition – biochemical, confirmation dose response, primary screen (AID 588689); type: functional
[17] = test system: Vero; test: viability of Vero cells under compound – cytotoxicity control for flavivirus capping enzyme inhibitors (AID 588742); type: functional; conditions: Chlorocebus sabaeus
[18] = inhibition of ARNT PAS-B/TACC3 complex formation – biochemical, AlphaScreen, cherry-picked samples, confirmation (AID 651703); type: functional, Homo sapiens;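 further: His-tagged ARNT PAS-B domain paired with GST-TACC3 E629A dimer coactivator fragment; potency of inhibitors that break up the complex and lower AlphaScreen signal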
[19] = general mammalian cell viability loss – inhibitor set, cherry-pick, set 2, cytotoxicity control for miR-122 modulator project, dose response (AID 720697); type: functional, cell-based
[20] = reduction of Shn3 3'UTR-driven luciferase in osteoblasts – cell-based, Clone20 osteoblasts, firefly luciferase, cherry-picked, dose response (AID 624132); type: functional;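 further: firefly luciferase luminescence from reporter carrying the Shn3 3'UTR in osteoblasts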
[21] = test system: HEK293; test: EBV LMP1 TES2 canonical NF-kB signalling blockers – cell-based, HEK293, luciferase, cherry-pick, dose response (AID 588343); type: functional; conditions: Homo sapiens
[22] = loss of viability in HepG2 cells – cell-based, CellTiter-Glo, cherry-picked, cytotoxicity control for Shn3 inhibitor project, dose response (AID 624134); type: functional
[23] = non-specific 3'UTR reporter inhibition in Clone20-Shn3RL – cell-based, Renilla luciferase, cherry-picked, counter-screen for Shn3 inhibitor project, dose response (AID 624133); type: functional
[24] = reduced cellular PGC1a acetyl-lysine signal – cell-based, cherry-picked samples, dose response (AID 720514); type: functional;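 further: potency may reflect raised or lowered acetylation signal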
[25] = activation of miR-122 Renilla sensor silencing – cell-based, Huh7 psiCHECK-miR122, Renilla luciferase, cherry-picked, dose response (AID 651956); type: functional;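 further: huh7 hepatoma cells stably carrying a psiCHECK-2 miR-122 sensor plasmid; renilla luciferase signal reporting endogenous miR-122 activity after 48 h compound exposure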
[26] = general mammalian cell viability loss – activator set, cherry-pick, cytotoxicity control for miR-122 modulator project, dose response (AID 720690); type: functional, cell-based;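 further: HEK293T human cells scored for general mammalian cytotoxicity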
[27] = inhibitors of TRPM1-promoter reporter in SK-MEL-5 – cell-based, luciferase, dry powder, set 8, MITF inhibitor project, dose response (AID 624430); type: functional
[28] = MITF: Counter assay: A375 proliferation Measured in Cell-Based System Using Plate Reader - 2084-03_Inhibitor_Dose_DryPowder_Activity_Set8.; type: functional; conditions: A-375
[29] = MITF Orthogonal Assay: SK-MEL-5 CTG Assay Measured in Cell-Based System Using Plate Reader - 2084-02_Inhibitor_Dose_DryPowder_Activity_Set7.; type: functional
[30] = biological target: T4, Genome polyprotein (Hepatitis C virus, UniProt Q2Q167); test: disruption of hepatitis C core self-association – biochemical, TR-FRET, dose response (AID 2159); set-up: species or system Hepacivirus hominis;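 further: blocks dimerization of HCV core protein measured by TR-FRET between tagged core106 pairs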
T4 sequence (Q2Q167 whole entry): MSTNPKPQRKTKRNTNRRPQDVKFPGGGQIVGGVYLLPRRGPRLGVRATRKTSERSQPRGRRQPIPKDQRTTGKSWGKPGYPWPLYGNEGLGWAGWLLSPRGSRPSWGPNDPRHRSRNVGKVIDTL

[31] = biological target: T5, Induced myeloid leukemia cell differentiation protein Mcl-1 (Homo sapiens, UniProt Q07820); type: functional
T5 sequence (Q07820 whole entry): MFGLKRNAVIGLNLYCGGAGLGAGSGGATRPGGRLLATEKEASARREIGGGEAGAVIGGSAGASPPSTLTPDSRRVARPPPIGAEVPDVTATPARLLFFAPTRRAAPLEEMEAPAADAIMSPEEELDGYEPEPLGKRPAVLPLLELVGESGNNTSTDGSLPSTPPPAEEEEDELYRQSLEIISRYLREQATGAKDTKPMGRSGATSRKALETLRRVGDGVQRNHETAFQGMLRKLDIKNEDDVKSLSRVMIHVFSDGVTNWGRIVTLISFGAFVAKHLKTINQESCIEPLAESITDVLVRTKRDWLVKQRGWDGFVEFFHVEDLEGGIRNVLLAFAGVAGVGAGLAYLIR

[32] = biological target: Eukaryotic translation initiation factor 4E (Mus musculus, UniProt P63073); test: blockers of eIF4G binding by eIF4E – biochemical, TR-FRET, dose response (AID 855); type: functional;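 further: potency for disrupting eIF4E binding to eIF4GI seen as loss of FRET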
[33] = biological target: Bcl-2-like protein 1 (Homo sapiens, UniProt Q07817); test: blockers of BCLXL peptide binding – biochemical, fluorescence polarization, 1536-well, selectivity assay for MCL1 inhibitor project, dose response (AID 2218)
[34] = biological target: T5, Induced myeloid leukemia cell differentiation protein Mcl-1; test: blockers of MCL1 binding to BIM peptide – biochemical, fluorescence polarization, BIM-BH3 peptide, 1536-well, dose response (AID 2217)
[35] = IC50 of insulin release inhibition, rat insulinoma INS-1E line, 5 mM glucose, cell-based (AID 1117331); type: functional
[36] = Dd2 parasite growth inhibition in erythrocytes – SYBR Green, dry powder samples, set 9, dose response (AID 1159568); type: functional, cell-based

With `CC1=CC(C)(C)N=C(Nc2nc(C)c3cc(C)cc(C)c3n2)N1` the CC50 [1] was 37.6 µM (active) and the AC50 [2] was 5.16 µM (active).
In the case of `O=C(NC1=C(N2CCOCC2)C(=O)c2ccccc2C1=O)c1ccccc1`, the AC50 [3] is reported as 31.9 µM (active) and the AC50 [4] is reported as 34.6 µM (active).
With `O=C(C1=C(O)C(=O)N(CCOCCO)C1c1cccs1)c1cccs1` (stereo not drawn) the Ki [5] was 21.4 µM (inactive).
With `C=CCSc1nsc(N)n1` the IC50 [6] was > 100 µM (not active).
With `C[C@@H]1CN([C@@H](C)CO)C(=O)c2cc(NC(=O)Nc3ccc(C(F)(F)F)cc3)ccc2O[C@@H](C)CCCCO[C@H]1CN(C)Cc1ccc2c(c1)OCO2` the AC50 [7] was 24 µM (active), the AC50 [8] was 9.82 µM (active) and the AC50 [9] was 29 µM (active). For the same compound, the AC50 [10] was 14.3 µM (active).
For `COCCN1C(=O)/C(=C/c2ccc(OCc3ccc(C(=O)O)cc3)c(OC)c2)S/C1=N\c1ccccc1`, the IC50 [11] was 40.2 µM (active).
With `O=C(N/N=C/c1cnc(N2CCCCC2)s1)c1ccc(Cl)cc1` the EC50 [12] was > 79.4 µM (not active), the EC50 [13] was > 79.4 µM (not active) and the EC50 [14] was > 79.4 µM (not active).
With `O=C(NCc1nnc(S)n1-c1ccc(Br)cc1)c1ccc(S(=O)(=O)N2CCOCC2)cc1` the EC50 [12] was > 79.4 µM (not active), the EC50 [13] was > 79.4 µM (not active) and the EC50 [14] was > 79.4 µM (not active).
For `CC(C(=O)Nc1ccc(O)c(C(=O)O)c1)N1C(=O)/C(=C/c2cccs2)SC1=S` (stereo not drawn), the AC50 [15] was > 100 µM (inactive), the IC50 [16] was 41.1 µM (active) and the CC50 [17] was > 40 µM (active). The IC50 [11] was > 50 µM (active) and the AC50 [18] was 132 µM (active).
In the case of `O=C(NC1=C(N2CCSCC2)C(=O)c2ccccc2C1=O)c1ccccc1`, the AC50 [3] is reported as 26.9 µM (active) and the AC50 [4] is reported as 40.7 µM (active).
With `CCN1CCN(Cc2ccc(NC(=O)c3ccc(C)c(NC(=O)c4cnc5cc(C(F)(F)F)ccc5c4O)c3)cc2C(F)(F)F)CC1` the AC50 [19] was 4.86 µM (active), the AC50 [20] was 3.13 µM (active) and the AC50 [21] was 2.74 µM (active). For the same compound, the AC50 [22] was 5.71 µM (active), the AC50 [23] was 6.23 µM (active) and the AC50 [24] was 5.48 µM (active). For the same compound, the AC50 [25] was 5.11 µM (active) and the AC50 [26] was 4.48 µM (active).
For `O=C1C(Nc2ccc(Cl)c(Cl)c2)=C(N2CCCC2)C(=O)c2ccccc21`, the AC50 [27] was 8.91 µM (active), the AC50 [28] was > 70 µM (inactive) and the AC50 [29] was 29.2 µM (active).
In the case of `COc1ccc(Cc2nnc(NC(=O)Cc3cccs3)s2)cc1OC`, the IC50 [30] is reported as > 49.8 µM (not active), the IC50 [31] is reported as 1.97 µM (active) and the IC50 [32] is reported as 19.1 µM (active). The IC50 [33] was > 109 µM (not active) and the IC50 [34] was 5.14 µM (active).
In the case of `O=C(NCCCN1CCCC1=O)c1ccc(Cl)c(NS(=O)(=O)c2ccc(F)cc2)c1`, the IC50 [6] is reported as > 100 µM (not active).
In the case of `O=C1C(Nc2ccc(F)cc2F)=C(N2CCCC2)C(=O)c2ccccc21`, the AC50 [27] is reported as 0.677 µM (active), the AC50 [28] is reported as 8.05 µM (active) and the AC50 [29] is reported as 2.35 µM (active).
For `CC(C(O)c1ccccc1)N(C)CCOC(c1ccccc1)c1ccccc1` (stereo not drawn) [DIFETEROL], the IC50 [35] was > 33.3 µM (inactive).
For `C[C@H](CO)N1C[C@H](C)[C@H](CN(C)C(=O)NC2CCCCC2)Oc2cc(C#Cc3ccc(F)cc3)ccc2S1(=O)=O`, the AC50 [10] was 7.83 µM (active) and the AC50 [24] was 12.8 µM (active).
For `N#C[C@@H]1[C@H](c2ccccc2C2=CCCCC2)[C@H](CO)N1S(=O)(=O)c1ccccc1`, the AC50 [36] was 13.1 µM (active).
